Measurements as given in the kinase profiling compilation of Christmann-Franck et al. (2016).

What was measured:
Assay in all cases: radiometric filter-binding kinase assay, Kinase HotSpot
Details in all cases: compound 0.5 µM; ATP 10 µM
TNK2 (human) = TNK2 (human) (UniProt Q07912)
ZAP70 (human) = ZAP70 (human) (UniProt P43403)
ROCK2 (human) = ROCK2 (human) (UniProt O75116)
TYRO3 (human) = TYRO3 (human) (UniProt Q06418)
AURKC (human) = AURKC (human) (UniProt Q9UQB9)
PDGFRB (human) = PDGFRB (human) (UniProt P09619)
GRK5 (human) = GRK5 (human) (UniProt P34947)
CDK6 CCND1 (human) = CDK6 CCND1 (human) (UniProt Q00534+P24385)
MINK1 (human) = MINK1 (human) (UniProt Q8N4C8)
MAP3K3 (human) = MAP3K3 (human) (UniProt Q99759)
NEK3 (human) = NEK3 (human) (UniProt P51956)
MAPK13 (human) = MAPK13 (human) (UniProt O15264)
Sequence of MAPK13 (human) (O15264 whole entry, looked up): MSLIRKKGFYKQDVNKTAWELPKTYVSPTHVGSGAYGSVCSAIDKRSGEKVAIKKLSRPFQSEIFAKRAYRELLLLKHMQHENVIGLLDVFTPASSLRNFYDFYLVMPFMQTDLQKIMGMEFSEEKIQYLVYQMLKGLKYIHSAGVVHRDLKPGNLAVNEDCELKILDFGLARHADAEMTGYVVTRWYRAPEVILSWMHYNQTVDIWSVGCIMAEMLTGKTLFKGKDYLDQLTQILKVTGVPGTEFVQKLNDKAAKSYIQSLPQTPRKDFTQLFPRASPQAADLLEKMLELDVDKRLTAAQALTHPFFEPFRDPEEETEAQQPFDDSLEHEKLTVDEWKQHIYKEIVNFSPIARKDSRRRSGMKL

FER (human) = FER (human) (UniProt P16591)
EPHA4 (human) = EPHA4 (human) (UniProt P54764)
TEC (human) = TEC (human) (UniProt P42680)
Sequence of TEC (human) (P42680 whole entry, looked up): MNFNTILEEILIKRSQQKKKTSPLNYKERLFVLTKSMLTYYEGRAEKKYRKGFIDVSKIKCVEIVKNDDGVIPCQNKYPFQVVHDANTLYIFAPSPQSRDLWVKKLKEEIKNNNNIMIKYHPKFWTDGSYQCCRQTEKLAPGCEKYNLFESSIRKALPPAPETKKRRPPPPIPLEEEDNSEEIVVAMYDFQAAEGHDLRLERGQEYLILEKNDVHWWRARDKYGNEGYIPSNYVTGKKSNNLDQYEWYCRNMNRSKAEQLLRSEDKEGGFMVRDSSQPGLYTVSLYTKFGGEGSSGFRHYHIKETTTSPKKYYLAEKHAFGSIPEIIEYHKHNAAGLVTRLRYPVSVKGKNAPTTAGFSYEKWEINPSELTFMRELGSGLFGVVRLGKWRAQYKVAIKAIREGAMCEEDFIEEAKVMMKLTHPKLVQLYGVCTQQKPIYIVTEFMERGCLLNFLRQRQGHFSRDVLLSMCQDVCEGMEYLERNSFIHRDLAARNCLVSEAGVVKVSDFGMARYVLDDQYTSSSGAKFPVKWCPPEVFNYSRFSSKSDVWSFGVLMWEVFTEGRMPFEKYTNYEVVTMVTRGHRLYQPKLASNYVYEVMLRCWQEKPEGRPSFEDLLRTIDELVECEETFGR

ERBB4 (human) = ERBB4 (human) (UniProt Q15303)
ROS1 (human) = ROS1 (human) (UniProt P08922)
CDK7 CCNH MNAT1 (human) = CDK7 CCNH MNAT1 (human) (UniProt P50613+P51948+P51946)
LCK (human) = LCK (human) (UniProt P06239)
STK25 (human) = STK25 (human) (UniProt O00506)
PIM2 (human) = PIM2 (human) (UniProt Q9P1W9)
CDK5 CDK5R1 p35 (human) = CDK5 CDK5R1 p35 (human) (UniProt Q00535+Q15078)
FLT1 (human) = FLT1 (human) (UniProt P17948)
FGFR1 (human) = FGFR1 (human) (UniProt P11362)
KIT (human) = KIT (human) (UniProt P10721)
Sequence of KIT (human) (P10721 whole entry, looked up): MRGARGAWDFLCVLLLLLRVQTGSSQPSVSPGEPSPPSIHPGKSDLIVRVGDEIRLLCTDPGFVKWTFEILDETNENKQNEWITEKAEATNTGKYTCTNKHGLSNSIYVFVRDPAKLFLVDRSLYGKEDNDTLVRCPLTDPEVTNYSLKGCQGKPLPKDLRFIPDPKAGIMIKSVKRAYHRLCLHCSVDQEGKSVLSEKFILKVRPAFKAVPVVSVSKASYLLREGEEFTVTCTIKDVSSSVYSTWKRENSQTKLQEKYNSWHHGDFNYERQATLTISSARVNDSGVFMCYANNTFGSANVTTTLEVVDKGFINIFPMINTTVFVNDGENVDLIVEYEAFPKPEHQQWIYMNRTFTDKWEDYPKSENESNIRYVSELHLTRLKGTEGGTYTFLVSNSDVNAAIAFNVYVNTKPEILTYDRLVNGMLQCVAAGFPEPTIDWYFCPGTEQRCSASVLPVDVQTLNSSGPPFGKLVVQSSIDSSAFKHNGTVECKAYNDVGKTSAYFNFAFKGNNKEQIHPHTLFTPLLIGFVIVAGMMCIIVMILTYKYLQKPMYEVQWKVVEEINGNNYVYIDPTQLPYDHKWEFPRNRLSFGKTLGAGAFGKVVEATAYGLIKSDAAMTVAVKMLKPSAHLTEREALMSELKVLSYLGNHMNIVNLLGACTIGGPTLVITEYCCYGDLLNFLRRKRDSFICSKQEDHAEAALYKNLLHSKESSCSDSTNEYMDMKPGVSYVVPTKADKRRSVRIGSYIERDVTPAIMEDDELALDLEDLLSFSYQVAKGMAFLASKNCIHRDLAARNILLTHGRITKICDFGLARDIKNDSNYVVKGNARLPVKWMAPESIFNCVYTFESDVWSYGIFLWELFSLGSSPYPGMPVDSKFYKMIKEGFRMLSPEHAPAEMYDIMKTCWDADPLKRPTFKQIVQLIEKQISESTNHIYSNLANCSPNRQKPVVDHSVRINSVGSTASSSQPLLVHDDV

MAP3K8 (human) = MAP3K8 (human) (UniProt P41279)
TEK (human) = TEK (human) (UniProt Q02763)
[1] = molecular target: TYK2 JH1 catalytic (human) (UniProt P29597)
CSF1R (human) = CSF1R (human) (UniProt P07333)
Sequence of CSF1R (human) (P07333 whole entry, looked up): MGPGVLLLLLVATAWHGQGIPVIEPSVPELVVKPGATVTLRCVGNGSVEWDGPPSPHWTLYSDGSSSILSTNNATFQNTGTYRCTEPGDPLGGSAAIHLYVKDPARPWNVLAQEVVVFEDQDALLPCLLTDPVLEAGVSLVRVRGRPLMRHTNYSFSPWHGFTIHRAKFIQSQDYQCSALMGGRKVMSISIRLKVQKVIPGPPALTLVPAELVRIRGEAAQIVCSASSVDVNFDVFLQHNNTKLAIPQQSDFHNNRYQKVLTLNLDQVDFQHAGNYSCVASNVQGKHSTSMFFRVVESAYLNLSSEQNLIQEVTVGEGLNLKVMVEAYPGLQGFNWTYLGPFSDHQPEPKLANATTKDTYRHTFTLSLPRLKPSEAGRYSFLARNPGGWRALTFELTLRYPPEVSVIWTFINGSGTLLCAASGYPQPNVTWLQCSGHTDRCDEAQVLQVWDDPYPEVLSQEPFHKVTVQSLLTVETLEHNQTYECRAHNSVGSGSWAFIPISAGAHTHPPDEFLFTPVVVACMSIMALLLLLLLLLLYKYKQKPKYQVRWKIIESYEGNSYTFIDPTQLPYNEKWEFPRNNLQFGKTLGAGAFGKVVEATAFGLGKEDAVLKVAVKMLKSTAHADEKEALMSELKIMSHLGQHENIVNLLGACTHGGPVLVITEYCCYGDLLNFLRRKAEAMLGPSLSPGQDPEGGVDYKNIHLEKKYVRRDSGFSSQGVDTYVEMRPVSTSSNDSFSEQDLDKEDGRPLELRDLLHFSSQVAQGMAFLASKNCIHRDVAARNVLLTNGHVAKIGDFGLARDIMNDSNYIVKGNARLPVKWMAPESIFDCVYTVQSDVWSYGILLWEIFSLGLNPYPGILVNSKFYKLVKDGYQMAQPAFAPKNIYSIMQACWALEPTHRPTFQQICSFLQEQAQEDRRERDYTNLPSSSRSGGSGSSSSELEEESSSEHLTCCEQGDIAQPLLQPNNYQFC

ACVR1B (human) = ACVR1B (human) (UniProt P36896)
MUSK (human) = MUSK (human) (UniProt O15146)
PAK6 (human) = PAK6 (human) (UniProt Q9NQU5)
CLK1 (human) = CLK1 (human) (UniProt P49759)
PLK2 (human) = PLK2 (human) (UniProt Q9NYY3)
MAPK3 (human) = MAPK3 (human) (UniProt P27361)
DAPK3 (human) = DAPK3 (human) (UniProt O43293)
CSNK1G1 (human) = CSNK1G1 (human) (UniProt Q9HCP0)
CDK2 CCNA2 (human) = CDK2 CCNA2 (human) (UniProt P24941+P20248)
DMPK (human) = DMPK (human) (UniProt Q09013)
AKT2 (human) = AKT2 (human) (UniProt P31751)
PHKG2 (human) = PHKG2 (human) (UniProt P15735)
PRKCD (human) = PRKCD (human) (UniProt Q05655)
Sequence of PRKCD (human) (Q05655 whole entry, looked up): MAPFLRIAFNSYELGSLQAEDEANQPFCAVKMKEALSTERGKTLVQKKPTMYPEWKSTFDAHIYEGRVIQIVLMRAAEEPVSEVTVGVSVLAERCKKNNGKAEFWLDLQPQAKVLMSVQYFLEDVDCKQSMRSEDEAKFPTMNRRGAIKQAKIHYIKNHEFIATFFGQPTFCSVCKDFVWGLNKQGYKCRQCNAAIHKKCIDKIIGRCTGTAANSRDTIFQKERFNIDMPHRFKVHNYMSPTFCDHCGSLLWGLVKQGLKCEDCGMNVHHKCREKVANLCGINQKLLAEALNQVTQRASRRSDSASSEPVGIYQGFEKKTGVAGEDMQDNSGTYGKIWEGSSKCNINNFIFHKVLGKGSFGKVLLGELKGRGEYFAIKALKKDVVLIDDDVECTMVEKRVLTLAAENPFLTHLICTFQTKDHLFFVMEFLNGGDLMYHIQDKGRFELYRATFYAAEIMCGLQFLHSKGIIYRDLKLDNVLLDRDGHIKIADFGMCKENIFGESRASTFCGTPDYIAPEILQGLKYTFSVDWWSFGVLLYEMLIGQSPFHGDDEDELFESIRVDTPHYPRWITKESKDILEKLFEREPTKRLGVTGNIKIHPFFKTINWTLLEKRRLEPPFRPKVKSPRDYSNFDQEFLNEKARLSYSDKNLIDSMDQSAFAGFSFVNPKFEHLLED

Sequence of TNK2 (human) (Q07912 whole entry, looked up): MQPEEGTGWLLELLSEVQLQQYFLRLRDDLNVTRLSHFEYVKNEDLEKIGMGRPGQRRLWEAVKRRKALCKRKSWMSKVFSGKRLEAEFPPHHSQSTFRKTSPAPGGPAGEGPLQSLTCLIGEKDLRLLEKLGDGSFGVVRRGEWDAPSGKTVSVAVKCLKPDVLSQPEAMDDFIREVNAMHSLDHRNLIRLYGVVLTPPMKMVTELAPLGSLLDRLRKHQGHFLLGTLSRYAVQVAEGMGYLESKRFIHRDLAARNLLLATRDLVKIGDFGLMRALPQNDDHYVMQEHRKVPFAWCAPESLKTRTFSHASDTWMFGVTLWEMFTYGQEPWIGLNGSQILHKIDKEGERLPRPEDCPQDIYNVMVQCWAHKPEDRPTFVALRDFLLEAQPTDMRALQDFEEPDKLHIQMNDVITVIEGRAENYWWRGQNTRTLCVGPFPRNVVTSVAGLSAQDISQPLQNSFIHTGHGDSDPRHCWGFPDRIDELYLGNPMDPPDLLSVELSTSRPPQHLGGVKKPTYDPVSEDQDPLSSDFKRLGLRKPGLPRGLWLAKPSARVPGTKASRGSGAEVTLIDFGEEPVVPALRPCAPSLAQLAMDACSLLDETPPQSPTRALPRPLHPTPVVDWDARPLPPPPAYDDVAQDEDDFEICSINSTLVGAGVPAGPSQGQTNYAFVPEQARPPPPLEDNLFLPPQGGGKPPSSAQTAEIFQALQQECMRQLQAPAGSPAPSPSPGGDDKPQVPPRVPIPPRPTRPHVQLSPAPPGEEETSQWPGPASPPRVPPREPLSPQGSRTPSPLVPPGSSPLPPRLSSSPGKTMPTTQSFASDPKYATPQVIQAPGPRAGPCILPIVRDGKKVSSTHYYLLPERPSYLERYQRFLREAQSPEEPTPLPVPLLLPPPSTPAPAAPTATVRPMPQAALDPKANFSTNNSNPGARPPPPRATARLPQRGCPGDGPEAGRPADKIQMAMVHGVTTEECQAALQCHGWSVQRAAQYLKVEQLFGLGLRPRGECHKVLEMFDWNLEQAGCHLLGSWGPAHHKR
Sequence of AURKC (human) (Q9UQB9 whole entry, looked up): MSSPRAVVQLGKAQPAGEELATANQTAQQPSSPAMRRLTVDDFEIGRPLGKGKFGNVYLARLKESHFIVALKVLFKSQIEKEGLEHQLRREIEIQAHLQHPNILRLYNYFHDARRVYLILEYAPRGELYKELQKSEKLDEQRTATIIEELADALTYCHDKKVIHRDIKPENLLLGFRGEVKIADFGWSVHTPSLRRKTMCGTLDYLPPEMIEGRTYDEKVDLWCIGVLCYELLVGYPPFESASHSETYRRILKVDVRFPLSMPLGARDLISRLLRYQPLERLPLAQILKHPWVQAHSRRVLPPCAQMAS

CCN(CC)CCCCN1c2ccccc2Oc2ccc(Cl)cc21
residual activity (TNK2 (human)): 94.7%
residual activity (ZAP70 (human)): 91.1%
residual activity (ROCK2 (human)): 104%
residual activity (TYRO3 (human)): 103%
residual activity (AURKC (human)): 99.3%
residual activity (PDGFRB (human)): 103%
residual activity (GRK5 (human)): 103%
residual activity (CDK6 CCND1 (human)): 98%
residual activity (MINK1 (human)): 111%
residual activity (MAP3K3 (human)): 103%
residual activity (NEK3 (human)): 103%
residual activity (MAPK13 (human)): 94.3%
residual activity (FER (human)): 102%
residual activity (EPHA4 (human)): 91.9%
residual activity (TEC (human)): 157%
residual activity (ERBB4 (human)): 102%
residual activity (ROS1 (human)): 95.3%
residual activity (CDK7 CCNH MNAT1 (human)): 99%
residual activity (LCK (human)): 94.6%
residual activity (STK25 (human)): 92.6%
residual activity (PIM2 (human)): 109%
residual activity (CDK5 CDK5R1 p35 (human)): 90.3%
residual activity (FLT1 (human)): 94.3%
residual activity (FGFR1 (human)): 105%
residual activity (KIT (human)): 107%
residual activity (MAP3K8 (human)): 94.7%
residual activity (TEK (human)): 103%
residual activity [1]: 96.7%
residual activity (CSF1R (human)): 97.8%
residual activity (ACVR1B (human)): 105%
residual activity (MUSK (human)): 103%
residual activity (PAK6 (human)): 102%
residual activity (CLK1 (human)): 110%
residual activity (PLK2 (human)): 103%
residual activity (MAPK3 (human)): 111%
residual activity (DAPK3 (human)): 106%
residual activity (CSNK1G1 (human)): 104%
residual activity (CDK2 CCNA2 (human)): 98.7%
residual activity (DMPK (human)): 99.2%
residual activity (AKT2 (human)): 101%
residual activity (PHKG2 (human)): 110%
residual activity (PRKCD (human)): 95.4%

CC(=O)O/N=C1\C(=C2\C(=O)Nc3cc(Br)ccc32)Nc2ccccc21
residual activity (TNK2 (human)): 74.7%
residual activity (ZAP70 (human)): 102%
residual activity (ROCK2 (human)): 91.7%
residual activity (TYRO3 (human)): 69.8%
residual activity (AURKC (human)): 86%
residual activity (PDGFRB (human)): 51.6%
residual activity (GRK5 (human)): 104%
residual activity (CDK6 CCND1 (human)): 53.2%
residual activity (MINK1 (human)): 76.1%
residual activity (MAP3K3 (human)): 97.4%
residual activity (NEK3 (human)): 130%
residual activity (MAPK13 (human)): 91.5%
residual activity (FER (human)): 86.4%
residual activity (EPHA4 (human)): 87.6%
residual activity (TEC (human)): 131%
residual activity (ERBB4 (human)): 101%
residual activity (ROS1 (human)): 105%
residual activity (CDK7 CCNH MNAT1 (human)): 91.1%
residual activity (LCK (human)): 53.5%
residual activity (STK25 (human)): 80.9%
residual activity (PIM2 (human)): 93.2%
residual activity (CDK5 CDK5R1 p35 (human)): 24.7%
residual activity (FLT1 (human)): 98.6%
residual activity (FGFR1 (human)): 68.8%
residual activity (KIT (human)): 62.3%
residual activity (MAP3K8 (human)): 104%
residual activity (TEK (human)): 106%
residual activity [1]: 81.6%
residual activity (CSF1R (human)): 84%
residual activity (ACVR1B (human)): 98.2%
residual activity (MUSK (human)): 68.5%
residual activity (PAK6 (human)): 74.8%
residual activity (CLK1 (human)): 83.3%
residual activity (PLK2 (human)): 100%
residual activity (MAPK3 (human)): 93.7%
residual activity (DAPK3 (human)): 82.2%
residual activity (CSNK1G1 (human)): 93.9%
residual activity (CDK2 CCNA2 (human)): 22.3%
residual activity (DMPK (human)): 95.4%
residual activity (AKT2 (human)): 113%
residual activity (PHKG2 (human)): 96.6%
residual activity (PRKCD (human)): 97%

CC(C)c1nn(-c2c(Cl)cccc2Cl)c2nc(Cc3ccc(OCCO)cc3)nc(O)c12
residual activity (TNK2 (human)): 98.9%
residual activity (ZAP70 (human)): 103%
residual activity (ROCK2 (human)): 92.5%
residual activity (TYRO3 (human)): 97.8%
residual activity (AURKC (human)): 87.6%
residual activity (PDGFRB (human)): 98.9%
residual activity (GRK5 (human)): 108%
residual activity (CDK6 CCND1 (human)): 19.8%
residual activity (MINK1 (human)): 97.1%
residual activity (MAP3K3 (human)): 110%
residual activity (NEK3 (human)): 87.3%
residual activity (MAPK13 (human)): 104%
residual activity (FER (human)): 89.4%
residual activity (EPHA4 (human)): 102%
residual activity (TEC (human)): 105%
residual activity (ERBB4 (human)): 101%
residual activity (ROS1 (human)): 105%
residual activity (CDK7 CCNH MNAT1 (human)): 60.3%
residual activity (LCK (human)): 88.6%
residual activity (STK25 (human)): 68.1%
residual activity (PIM2 (human)): 104%
residual activity (CDK5 CDK5R1 p35 (human)): 9.64%
residual activity (FLT1 (human)): 87.2%
residual activity (FGFR1 (human)): 84.2%
residual activity (KIT (human)): 71%
residual activity (MAP3K8 (human)): 96.4%
residual activity (TEK (human)): 100%
residual activity [1]: 111%
residual activity (CSF1R (human)): 94.6%
residual activity (ACVR1B (human)): 109%
residual activity (MUSK (human)): 96.2%
residual activity (PAK6 (human)): 102%
residual activity (CLK1 (human)): 94.7%
residual activity (PLK2 (human)): 99.8%
residual activity (MAPK3 (human)): 101%
residual activity (DAPK3 (human)): 104%
residual activity (CSNK1G1 (human)): 101%
residual activity (CDK2 CCNA2 (human)): 1.96%
residual activity (DMPK (human)): 99.3%
residual activity (AKT2 (human)): 92.4%
residual activity (PHKG2 (human)): 102%
residual activity (PRKCD (human)): 108%
